Reference: paper PMC7179274, “6′-β-Fluoro-Homoaristeromycin and 6′-Fluoro-Homoneplanocin A Are Potent Inhibitors of Chikungunya Virus Replication through Their Direct Effect on Viral Nonstructural Protein 1” (Antimicrobial Agents and Chemotherapy, 2020)
“Also recorded” adds a separate entry of the source.

Tests used:
CHIKV = assay: Time-of-drug-addition assay, CHIKV; conditions: 10 μM, pretreated or treated early (−12 to 4 h)
SFV = assay: Viral load reduction (single-cycle dose response) assay, SFV; type: cell-based, Semliki Forest virus; conditions: 12.5 μM, VeroE6, MOI 5, 8 hpi, plaque assay

## Nc1ncnc2c1ncn2C1C(F)=C(CCO)C(O)C1O (centres unmarked) [FHNA, 6′-fluoro-homoneplanocin A]
CHIKV
  CHIKV specific infectivity (genome copies vs infectious virus yield): decrease in specific infectivity; also recorded: reduction in CHIKV-specific infectivity
SFV
  Reduction of SFV infectious progeny: > 1 log10
